Source: paper PMC5638611, “Effects of glutamate and ivermectin on single glutamate-gated chloride channels of the parasitic nematode H. contortus” (PLoS Pathogens, 2017)

Tests used:
[1] = biological target: T1, glutamate-gated chloride channel receptor α (avr-14b) (GluClR), homomeric (Haemonchus contortus, UniProt O46124); assay: outside-out patch single-channel recording; direct activation by […] IVM, and potentiation of […] glutamate; format: cell-based
T1 construct: gene gbr-2; homomeric avr-14b subunit expressed in HEK AD293 cells
T1 sequence (O46124 entry or part of it): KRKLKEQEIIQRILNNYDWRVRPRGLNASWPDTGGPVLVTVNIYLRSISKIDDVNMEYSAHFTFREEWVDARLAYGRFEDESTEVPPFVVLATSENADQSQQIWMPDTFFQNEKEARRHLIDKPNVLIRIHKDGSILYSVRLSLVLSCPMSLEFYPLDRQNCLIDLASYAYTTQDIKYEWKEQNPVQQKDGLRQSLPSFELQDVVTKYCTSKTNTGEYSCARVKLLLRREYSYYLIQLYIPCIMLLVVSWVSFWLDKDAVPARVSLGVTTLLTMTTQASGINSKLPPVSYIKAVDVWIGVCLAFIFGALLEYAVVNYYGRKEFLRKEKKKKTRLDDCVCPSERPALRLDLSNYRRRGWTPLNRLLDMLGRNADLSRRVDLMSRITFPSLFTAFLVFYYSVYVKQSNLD

[2] = biological target: T2, glutamate-gated chloride channel receptor α (avr-14b) (GluClR), homomeric, G36'A mutant (Haemonchus contortus, UniProt O46124, G329A); assay: outside-out patch single-channel recording; direct activation by […] IVM; format: cell-based
T2 construct: gene gbr-2; homomeric avr-14b subunit expressed in HEK AD293 cells
T2 sequence (O46124 31-438 G329A): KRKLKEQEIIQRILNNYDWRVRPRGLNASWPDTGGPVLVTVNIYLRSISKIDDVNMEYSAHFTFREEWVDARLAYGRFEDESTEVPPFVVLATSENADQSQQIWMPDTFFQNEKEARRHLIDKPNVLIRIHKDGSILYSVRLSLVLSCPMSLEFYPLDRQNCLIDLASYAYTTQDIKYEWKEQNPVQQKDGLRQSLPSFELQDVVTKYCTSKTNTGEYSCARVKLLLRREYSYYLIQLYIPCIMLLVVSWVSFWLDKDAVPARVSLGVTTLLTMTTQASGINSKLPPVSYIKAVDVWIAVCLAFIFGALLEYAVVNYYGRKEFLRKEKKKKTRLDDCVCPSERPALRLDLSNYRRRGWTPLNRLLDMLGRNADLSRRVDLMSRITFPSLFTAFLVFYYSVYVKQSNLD

## CC[C@H](C)[C@H]1O[C@]2(CC[C@@H]1C)C[C@@H]1C[C@@H](C/C=C(\C)[C@@H](O[C@H]3C[C@H](OC)[C@@H](O[C@H]4C[C@H](OC)[C@@H](O)[C@H](C)O4)[C@H](C)O3)[C@@H](C)/C=C/C=C3\CO[C@@H]4[C@H](O)C(C)=C[C@@H](C(=O)O1)[C@]34O)O2 [Ivermectin]
[1]
  outside-out patch single-channel recording; direct activation by 5 nM IVM, and p: 5 nM
[2]
  outside-out patch single-channel recording; direct activation by 5 nM IVM: 5 nM
